Assay: Thermal stability by TGA and comparative UV-Vis before and after heating up to 220° C.
Format: physicochemical
Description: Thermal transitions of polymer films were obtained using DSC (TA instruments Q100) at a heating rate of 10° C./min over a temperature range of about −80 to 200° C. The thermal properties of the polymers were measured by thermogravimetric analysis (TGA) on a TA Instruments, […]. The samples were heated up to 220° C. at a heating rate of 15° C./min under a dry nitrogen atmosphere (flow rate: 70 mL/min) on a TA Instruments 2950 thermogravimetric analyzer. X-ray diffraction (XRD) measurements were conducted via a Rigaku diffractometer in transmission mode with Cu Kα X-rays (λ=0.154 nm) operating at 40 kV and 40 mA. The experiment was carried out at 25° C. with a scan speed of 0.5°/min over a scan range of 5° to 40°.
The thermal property of the polymer-guest system was also investigated by the TGA to ensure system stability during the high temperature layer multiplying coextrusion process. […] A viscosity-match temperature of layer multiplying co-extrusion was determined by a melt flow indexer (MFI) at a low shear rate as shown in FIG. 5. A 60/40 feed ratio of PEO100K/PEO200K in layer B was obtained with the processing temperature of 200° C. selected based on material rheological compatibility. The ABAB-type layer multiplication process was conducted accordingly with PE as the protective surface layer and the technique described herein used to form the multilayer film.

## CN(C)c1ccc(N=Nc2ccc(S(=O)(=O)[O-])cc2)cc1.[Na+] [MO, methyl orange]
  conjugation structure of MO after heating (comparative UV-Vis): remained intact

— patent publication US20200093744A1, “POLYMER CONSTRUCTS FOR CONTROLLED RELEASE OF GUEST AGENTS” (CASE WESTERN RESERVE UNIVERSITY, priority 2017, published 2020)
